Experimental data published in patent US7247456B2, “Preparation of fucosylated oligosaccharides” (Neose Technologies, Inc., priority 1998, dated 2007).
Entries after “also recorded” stand apart in the source; their conditions may differ. Where two headings read alike, the source gives them in different places. Values belong to the compound of their own block, whether it stands above or below them.

What was measured:
[1] = target: T1, E. coli K12 GDP-mannose dehydratase (GDP-mannose 4,6-dehydratase, GMD), recombinant wild type from pTGK:GMD (Escherichia coli, UniProt P0AC88); experiment: Linearity of the GDP-mannose dehydratase assay with time (product inhibition); type: biochemical; details: linear up to 30 minutes, up to 90% of substrate consumed
T1 construct: made in house; host or cells: E. coli JM101 (plasmid pTGK:GMD), supernatant of French press lysate
Protocol: (§1) C. Assay of GDP-Mannose Dehydratase
(§2) To assay GDP-mannose dehydratase activity, a reverse phase HPLC assay was developed. […] GDP-mannose dehydratase activity was determined by reacting GDP-mannose dehydratase extract with 480 nmole of GDP-mannose in 50 mM Tris pH 7.5, 0.15 mM NADP^+ (NADP^+ is absolutely required for GDP-mannose dehydratase activity) in a 100 μl reaction volume. Twenty μl of the assay mix was injected over the C18 column.
(§3) By comparing the peak area of the no enzyme control, corresponding to 200 nmole, the decrease in the peak area of GDP-mannose was used to directly measure the activity of GDP-mannose dehydratase by the following formulae: (No enzyme peak area)−(enzyme peak area)=(Peak area of GDP-mannose consumed) 1. (Peak area of GDP-mannose consumed)/(No enzyme peak area)=% of 200 nmole GDP-mannose consumed. 2.
Samples were thawed and immediately injected over an aquasil reverse phase HPLC column.

GDP-mannose dehydratase [2] = target: T2, GDP-mannose dehydratase (Escherichia coli, UniProt P0AC88); experiment: GDP-mannose dehydratase reverse phase HPLC activity assay; type: biochemical, E. coli; details: for effect on GDP-mannose dehydratase activity: concentrations ranging from 1-20 mM
T2 construct: made in house; host or cells: E. coli JM101 (plasmid pTGK:GMD), French-press lysate supernatant
Protocol: (§4) To assay GDP-mannose dehydratase activity, a reverse phase HPLC assay was developed. […] […] Twenty μl of the assay mix was injected over the C18 column.
as §3
(§5) To control for any carryover loss upon HPLC injection, 10 nmole of CTP was added to the sample to be analyzed.

GDP-mannose dehydratase [3] = target: T3, GDP-mannose dehydratase (Sus scrofa, UniProt F1RX12); details: cited from earlier work
T3 sequence (F1RX12 1-372): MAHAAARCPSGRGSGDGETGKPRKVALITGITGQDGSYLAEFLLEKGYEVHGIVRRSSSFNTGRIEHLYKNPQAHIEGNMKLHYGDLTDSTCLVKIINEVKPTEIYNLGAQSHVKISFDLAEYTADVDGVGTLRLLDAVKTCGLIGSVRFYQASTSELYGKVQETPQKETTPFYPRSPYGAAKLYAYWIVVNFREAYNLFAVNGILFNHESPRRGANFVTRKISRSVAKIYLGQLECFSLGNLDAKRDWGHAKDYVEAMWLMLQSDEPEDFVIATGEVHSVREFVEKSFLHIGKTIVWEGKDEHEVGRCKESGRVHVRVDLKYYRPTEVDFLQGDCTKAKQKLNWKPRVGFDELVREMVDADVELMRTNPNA

GDP-mannose dehydratase [4] = details: cited from earlier work
[5] = target: T1, E. coli K12 GDP-mannose dehydratase (GDP-mannose 4,6-dehydratase, GMD), recombinant wild type from pTGK:GMD; experiment: Inhibition of GDP-mannose dehydratase (GMD) by GDP-fucose, reverse phase HPLC assay (FIG. 5); type: biochemical
Protocol: as §1, §2, §3, §5
Since GDP-mannose dehydratase represents the first committed step in GDP-fucose biosynthesis it is possible that GDP-fucose is a feedback inhibitor of the enzyme. To determine if this is true, the standard assay was performed in the presence of increasing amounts of GDP-fucose. […]

fucosyltransferase V = target: T4, fucosyltransferase V (Homo sapiens, UniProt Q11128); details: literature statement; cited from earlier work
T4 sequence (Q11128 1-374): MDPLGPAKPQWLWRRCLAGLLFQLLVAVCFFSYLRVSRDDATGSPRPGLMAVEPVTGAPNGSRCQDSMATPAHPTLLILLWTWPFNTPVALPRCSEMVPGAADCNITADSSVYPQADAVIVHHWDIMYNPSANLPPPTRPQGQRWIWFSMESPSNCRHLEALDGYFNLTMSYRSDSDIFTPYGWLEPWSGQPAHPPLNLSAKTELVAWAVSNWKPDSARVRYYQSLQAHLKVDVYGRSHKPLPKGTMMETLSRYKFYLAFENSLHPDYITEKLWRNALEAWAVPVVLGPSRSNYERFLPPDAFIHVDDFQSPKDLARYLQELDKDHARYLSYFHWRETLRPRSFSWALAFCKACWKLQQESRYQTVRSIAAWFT

fucosyltransferases = details: cited from earlier work
[6] = target: T5, fucosyltransferase V (FT V) (Homo sapiens, UniProt Q11128); experiment: Inhibition of fucosyltransferase V; type: biochemical; details: compared with GDP
T5 construct: printed for the preparative synthesis
T5 sequence (Q11128 1-374): T4 sequence (Q11128 1-374)

YEF B = YEF B (Escherichia coli, UniProt P32055, E255D/L256V); details: for YEF B Activity %: none = 100; for effect on YEF B activity: varying concentrations of metal ion
Protocol: To assay YEF B activity, a reverse phase HPLC assay was developed. An Aquesil C18 reverse phase column was set up in-line on a Beckman 126 solvent monitor. The column was eluted isocratically with 0.5M KH2PO4 over twenty minutes with a flow rate of 1 ml/min. A photodiode array detector was employed to monitor the elution scanning the 210-300 nm wavelength range.
A coupled assay was employed to assay YEF B activity. This was required since its substrate, GDP-4-keto-6-deoxymannose, is unstable and not commercially available. Twenty mUnit of GDP-mannose dehydratase was allowed to react with 480 nMole of GDP-mannose for 20 minutes under standard assay conditions as previously. […] The reaction was allowed to proceed for ten minutes at which point the reaction was stopped by freezing on dry ice. After thawing 10 μl aliquots were analyzed by reverse phase HPLC analysis. The amount of GDP fucose formed was calculated by analyzing a separate assay mix in the absence of GDP-mannose dehydratase to yield a 100% value for the absorption peak of GDP-mannose. […] to yield percentage of GDP-fucose formed. (% GDP-fucose)(nMole GDP-mannose in reaction)=nMole GDP-fucose formed.
The assay pH was varied from 6.5 to 8.0 using MES and Tris as buffers. The standard assay mix contained 20 mUnit GDP-mannose dehydratase, […] GDP-mannose, […], 10 mUnit glucose dehydrogenase (to recycle NADPH utilized by YEF B), 50 mM buffer at the appropriate pH and YEF B at appropriate dilution. The reaction was allowed to proceed for 15 minutes at 37° C. and immediately frozen on dry ice to stop the reaction. Ten μl aliquots were removed after thawing and analyzed by reverse phase HPLC.

[7] = target: T1, E. coli K12 GDP-mannose dehydratase (GDP-mannose 4,6-dehydratase, GMD), recombinant wild type from pTGK:GMD; experiment: Cofactor (NADP+) dependence of GDP-mannose dehydratase (Table 5); type: biochemical
Protocol: as §1, §2, §3, §5

GDP-mannose dehydratase [8] = target: T6, GDP-mannose dehydratase (Escherichia coli, UniProt P0AC88); experiment: GDP-mannose dehydratase reverse phase HPLC activity assay; type: biochemical, E. coli; details: 10 mUnit alkaline phosphatase included in the assay
T6 construct: made in house; host or cells: E. coli JM101 (plasmid pTGK:GMD), French-press lysate supernatant
T6 sequence (P0AC88 whole entry, looked up): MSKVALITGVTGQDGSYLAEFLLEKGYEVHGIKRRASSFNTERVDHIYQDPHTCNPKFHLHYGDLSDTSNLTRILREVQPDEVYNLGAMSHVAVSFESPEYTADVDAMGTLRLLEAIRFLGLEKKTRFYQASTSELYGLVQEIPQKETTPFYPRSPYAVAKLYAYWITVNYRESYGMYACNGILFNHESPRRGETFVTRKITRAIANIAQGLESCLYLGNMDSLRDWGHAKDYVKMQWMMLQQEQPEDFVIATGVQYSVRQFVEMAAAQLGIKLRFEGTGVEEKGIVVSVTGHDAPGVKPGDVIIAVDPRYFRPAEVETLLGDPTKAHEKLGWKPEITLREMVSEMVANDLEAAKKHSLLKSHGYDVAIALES
Protocol: as §4, §3, §5

YEF B, sequence (P32055 whole entry E255D/L256V): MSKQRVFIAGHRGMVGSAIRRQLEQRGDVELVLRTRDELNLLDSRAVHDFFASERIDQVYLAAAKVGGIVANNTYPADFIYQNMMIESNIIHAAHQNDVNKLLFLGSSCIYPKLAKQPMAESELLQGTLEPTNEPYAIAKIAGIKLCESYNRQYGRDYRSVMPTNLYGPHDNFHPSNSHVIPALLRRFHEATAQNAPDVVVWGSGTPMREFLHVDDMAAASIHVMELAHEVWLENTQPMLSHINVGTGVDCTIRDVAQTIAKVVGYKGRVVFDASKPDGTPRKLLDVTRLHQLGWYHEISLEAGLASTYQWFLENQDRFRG

Compound: C[C@H]1O[C@H](OP(=O)(O)OP(=O)(O)OC[C@H]2O[C@@H](n3cnc4c(=O)[nH]c(N)nc43)[C@H](O)[C@@H]2O)[C@@H](O)[C@@H](O)C1=O [GDP-4-keto-6 deoxymannose, GDP-4-keto-6-deoxymannose]
- inhibition of GDP-mannose dehydratase by the product [1]: does not inhibit the enzyme

Compound: C[C@H]1O[C@H](OP(=O)(O)OP(=O)(O)OC[C@H]2O[C@@H](n3cnc4c(=O)[nH]c(N)nc43)[C@H](O)[C@@H]2O)[C@@H](O)[C@@H](O)C1=O [GDP-4-keto-6-deoxymannose]
- inhibition of GDP-mannose dehydratase by its product (GDP-mannose dehydratase [2]; assay linear up to 90% of substrate consumed): does not inhibit the enzyme

Compound: C[C@@H]1O[C@H](OP(=O)(O)OP(=O)(O)OC[C@H]2O[C@@H](n3cnc4c(=O)[nH]c(N)nc43)[C@H](O)[C@@H]2O)[C@@H](O)[C@H](O)[C@@H]1O [GDP-fucose]
- catalytic activity of GDP-mannose dehydratase remaining (GDP-mannose dehydratase [3]; at 50 μM GDP-fucose): 10%
- remaining catalytic activity of GDP-mannose dehydratase (GDP-mannose dehydratase [4]; at 50 μM GDP-fucose): 10%
- inhibition of GDP-mannose dehydratase (GDP-mannose dehydratase [4]): strongly inhibited
- IC50 ([5]; restated for the 0.2 kG scale production, quantity not given, read-out: inhibitor concentration ("40 μM inhibitor", see FIG. 5)): 40 µM
- IC50 ([5]; standard assay: 480 nmole GDP-mannose, 50 mM Tris pH 7.5, 0.15 mM NADP+, 100 μl, increasing amounts of GDP-fucose, read-out: IC50): ~40 µM

Compound: Nc1nc2c(ncn2[C@@H]2O[C@H](COP(=O)(O)OP(=O)(O)O)[C@@H](O)[C@H]2O)c(=O)[nH]1 [GDP]
- inhibition of fucosyltransferases (fucosyltransferase V): inhibit; also recorded: potent inhibitor
- inhibition of fucosyltransferases (fucosyltransferases): known to inhibit
- inhibition of GDP-mannose dehydratase (GDP-mannose dehydratase [3]; literature statement): inhibit
- inhibition of GDP-mannose dehydratase (GDP-mannose dehydratase [4]): known to inhibit

- inhibitory potency relative to GDP (fold less potent) [6]: 10 ×
Compound: Nc1nc2c(ncn2[C@@H]2O[C@H](COP(=O)(O)OP(=O)(O)OP(=O)(O)O)[C@@H](O)[C@H]2O)c(=O)[nH]1 [GTP]

Compound: [Cl-].[Cl-].[Mg+2] [MgCl2]
- YEF B Activity % (YEF B; 1 mM metal ion): 110%
- YEF B Activity % (YEF B; 10 mM metal ion): 110%
- effect on YEF B activity (YEF B): somewhat stimulatory
- % GDP-mannose Dehydratase Activity mUnit/ml (GDP-mannose dehydratase [2]; 1 mM metal ion): 560 mUnit/ml
- % GDP-mannose Dehydratase Activity mUnit/ml (GDP-mannose dehydratase [2]; 10 mM metal ion): 610 mUnit/ml
- % GDP-mannose Dehydratase Activity mUnit/ml (GDP-mannose dehydratase [2]; 20 mM metal ion): 590 mUnit/ml
- effect on GDP-mannose dehydratase activity (GDP-mannose dehydratase [2]): essentially no effect

Compound: [Cl][Mn][Cl] [MnCl2]
- YEF B Activity % (YEF B; 1 mM metal ion): 60%
- YEF B Activity % (YEF B; 10 mM metal ion): 25%
- effect on YEF B activity (YEF B): severely inhibited in a dose dependent manner
- % GDP-mannose Dehydratase Activity mUnit/ml (GDP-mannose dehydratase [2]; 1 mM metal ion): 580 mUnit/ml
- % GDP-mannose Dehydratase Activity mUnit/ml (GDP-mannose dehydratase [2]; 10 mM metal ion): 570 mUnit/ml
- % GDP-mannose Dehydratase Activity mUnit/ml (GDP-mannose dehydratase [2]; 20 mM metal ion): 620 mUnit/ml
- effect on GDP-mannose dehydratase activity (GDP-mannose dehydratase [2]): essentially no effect

Compound: NC(=O)c1ccc[n+]([C@@H]2O[C@H](COP(=O)(O)OP(=O)(O)OC[C@H]3O[C@@H](n4cnc5c(N)ncnc54)[C@H](O)[C@@H]3O)[C@@H](O)[C@H]2O)c1 [NAD, NAD^+]
- % GDP-mannose dehydratase activity ([7]; cofactor at 1 mM): not detected
- substitution for NADP+ as cofactor ([7]; in place of NADP+): will not substitute for NADP^+

Compound: NC(=O)c1ccc[n+]([C@@H]2O[C@H](COP(=O)(O)OP(=O)(O)OC[C@H]3O[C@@H](n4cnc5c(N)ncnc54)[C@H](OP(=O)(O)O)[C@@H]3O)[C@@H](O)[C@H]2O)c1 [NADP, NADP^+]
- activity at 1000 µM ([7]; cofactor at 1 mM): 100%

Compound: NC(=O)c1ccc[n+]([C@@H]2O[C@H](COP(=O)(O)OP(=O)(O)OC[C@H]3O[C@@H](n4cnc5c(N)ncnc54)[C@H](OP(=O)(O)O)[C@@H]3O)[C@@H](O)[C@H]2O)c1 [NADP]
- % GDP-mannose dehydratase activity (GDP-mannose dehydratase [2]; 0.15 mM cofactor): 100%
- % GDP-mannose dehydratase activity (GDP-mannose dehydratase [2]; 1 mM cofactor): 100%

Compound: NC(=O)c1ccc[n+]([C@@H]2O[C@H](COP(=O)(O)OP(=O)(O)OC[C@H]3O[C@@H](n4cnc5c(N)ncnc54)[C@H](O)[C@@H]3O)[C@@H](O)[C@H]2O)c1 [NAD]
- % GDP-mannose dehydratase activity (GDP-mannose dehydratase [2]; 1 mM cofactor): not detected

Compound: Alkaline Phosphatase
- % GDP-mannose dehydratase activity (GDP-mannose dehydratase [8]): not detected
- % GDP-mannose dehydratase activity (GDP-mannose dehydratase [8]; listed as alkaline phosphatase): severely attenuated
